According to patent publication US5158950A, “1,3-dithiol-2-ylidene derivatives and process for the preparation thereof” (Yuhan Corporation, Ltd., priority 1987, dated 1992):

Key:
[1] = tested on: serum ALT activity induced by CCl4; assay: Protective effect against acute hepatic damage induced by carbon tetrachloride (serum ALT); format: in vivo; conditions: Mus musculus; mice, 50 mg/kg oral, 6 h before CCl4 (50 ul/kg oral); ALT 24 h after CCl4; read-out: Inhibitory (%): protective effect against increase of serum ALT activity induced by CCl4
Description: Principle; Carbon tetrachloride (CCl4) is a well-known hepatotoxic agent, thus widely used to produce experimental animal models for screening the potential drugs acting upon hepatic diseases. In this experiment test compounds were administered to mice prior to treatment with CCl4. 24 Hours after the CCl4 treatment, the animals were sacrificed and serum alanine aminotransferase (ALT) levels were determined. The hepatoprotective effect of a test compound was evaluated by the suppressive action against the increase of serum ALT induced by CCl4.
Method; The experimental animals were divided into normal, CCl4 treated and test compound treated groups. Each group consisted of 8 mice with body weight of 20-25 grams. The test compounds were suspended in 0.2% sodium carboxy methyl cellulose (CMC-Na) solution and administered orally at the dose of 50 mg/125 ml/kg body weight. Only the vehicle, 0.2% CMC-Na solution, was administered to the normal and to the CCl4 treated group instead of the test compound suspension. 6 Hours after the drug administration, the CCl4 solution in olive oil was administered orally to the CCl4 treated- and the test compound treated group at the dose of 50 ul/25 ml olive oil/kg body weight. The normal group was administered olive oil only at the same dose. 24 Hours after the CCl4 administration, blood samples were collected from the orbital sinus of the animals and the sera were obtained by centrifugation The serum ALT activities were monitored using an automatic blood analyzer (Gilford, SBA 300). The hepatoprotective effect of the test compounds was expressed by the suppressive percentage against the increase of serum ALT level induced by CCl4 calculated by the following formula; [formula]

[2] = Acute oral toxicity, median lethal dose (LD50); conditions: mouse, in vivo, male ICR mice, deaths counted for 14 days
Description: Each test compound was suspended in a 0.2% CMC-Na solution in various concentrations to make test suspension. The test suspensions were administered orally to male ICR mice (10 in each group) at various doses. The number of dead mice was counted for 14 days and the value of mediam lethal dose (LD50, g/kg) was calculated by the Hitchifield-Wilcoxon method.

[3] = tested on: serum ALT level after CCl4 treatment; assay: Determination of 50% inhibitory dose (ID50) against CCl4-induced serum ALT increase; format: in vivo; conditions: Mus musculus; mice, oral, 6 h before CCl4; estimated from dose-response curve at 50, 25, 12.5, 6.25 mg/kg
Description: Principle The various doses of test compounds were administered to mice, followed by the treatment with CCl4 after 6 hours. 24 Hours after the CCl4 treatment, the serum ALT level of the animals were determined. The hepatoprotective effect of the test compounds and the doses were plotted to form dose-response curves. The ID50 doses of the test compounds were estimated from the dose-response curves.
Method; The experimental animals were divided into normal, CCl4 treated and test compound treated groups. Each group consisted of 8 mice with body weight of 20-25 grams. The test compounds were suspended in 0.2% CMC-Na solution and administered orally at a dose of 50 mg, 25 mg, 12.5 mg, or 6.25 mg/125 ml/kg body weight. Only the vehicle, 0.2% CMC-Na solution, was administered to the normal and to the CCl4 treated group instead of the test compound suspension. 6 Hours after the drug administration, the CCl4 solution in olive oil was administered orally to the CCl4 treated and the test compound treated groups at the dose of 50 ul/25 ml olive oil/kg body weight. The normal group was administered olive oil only at the same dose. 24 Hours after the CCl4 administration, blood samples were collected from the orbital sinus of the animals and the sera were obtained by centrifugation. The serum ALT activities were monitored and the hepatoprotective effect of the test compounds were calculated by the same method as described in experiment 1. The inhibitory percentages were plotted against the corresponding doses of the test compounds to make dose-response curves. The 50% inhibitory dose of test compound was estimated from the dose-response curve.

SMILES	inhibition in vivo at 50 mg/kg [1]	LD50 at 336 h [2]	ED50 [3]
CC(=O)Oc1cccc(NC(=O)C(C(=O)OC(C)C)=C2SC=CS2)c1 [24(b)]	98%	> 5000 mg/kg	
CC(C)OC(=O)C(C(=O)Nc1cnccn1)=C1SC=CS1 [18(l), Isopropyl 2-(1,3-dithiol-2-ylidene)-2-[N-(pyrazin-2yl)carbamoyl]acetate]	99.8%	> 5000 mg/kg	< 6.25 mg/kg
CC(C)OC(=O)C(C(=O)Nc1ccccc1)=C1SC=CS1 [17(a), Isopropyl 2-(1,3-dithiol-2-ylidene)-2-(N-phenylcarbamoyl)acetate]	100%	3000 mg/kg	8 mg/kg
CCOC(=O)C(C(=O)Nc1nccs1)=C1SC=CS1 [19(b)]	101%	2500 mg/kg	6.25 mg/kg
CCC(C)OC(=O)C(C(=O)Nc1ccc(OC)cc1)=C1SC=CS1 (stereo not drawn) [17(n), sec-Butyl 2-(1,3-dithiol-2-ylidene)-2-[N-(4-methoxyphenyl)carbamoyl]acetate]	96.5%	> 5000 mg/kg	10 mg/kg
Cc1cnc(NC(=O)C(C(=O)OC(C)C)=C2SC=CS2)s1 [19(e), Isopropyl 2-(1,3-dithiol-2-ylidene)-2-[N-(5-methyl-2-thiazolyl)carbamoyl]acetate]	9.2%		25 mg/kg
CC(C)OC(=O)C(C(=O)Nc1ccnc(O)n1)=C1SC=CS1 [18(m)]	12.8%	> 5000 mg/kg	
CC(C)OC(=O)C(C(=O)Nc1cccnc1)=C1SC=CS1 [18(c), Isopropyl 2-(b 1,3-dithiol-2-ylidene)-2-[N-(3-pyridyl)carbamoyl]acetate]	100%		6.25 mg/kg
CCC(C)OC(=O)C(C(=O)Nc1ccccc1)=C1SC=CS1 (stereo not drawn) [17(b), sec-Butyl 2-(1,3-dithiol-2-ylidene)-2-(N-phenylcarbamoyl)acetate]	99.8%	> 5000 mg/kg	12.5 mg/kg
CCC(C)OC(=O)C(C(=O)Nc1nccs1)=C1SC=CS1 (stereo not drawn) [19(c), sec-Butyl 2-(1,3-dithiol-2-ylidene)-2-[N-(2-thiazolyl)-carbamoyl]acetate]	100%		< 6.25 mg/kg
CC(C)OC(=O)C(C(=O)Nc1nccs1)=C1SC=CS1 [19(a), Isopropyl 2-(b 1,3-dithiol-2-ylidene)-2-[N-(2-thiazolyl)-carbamoyl) acetate]	100%	> 5000 mg/kg	6.25 mg/kg
Cc1cccc(NC(=O)C(C(=O)OC(C)C)=C2SC=CS2)n1 [18(f), Isopropyl 2-(1,3-dithiol-2-ylidene)-2-[N-(6-methyl-2-pyridyl)carbamoyl]acetate]	100%	> 5000 mg/kg	12.5 mg/kg
CC(C)OC(=O)C(C(=O)Nc1ccc(O)cc1)=C1SC=CS1 [22(a), Isopropyl 2-(1,3-dithiol-2-ylidene)-2-[N-(4-hydroxyphenyl)carbamoyl]acetate]	99.2%	> 5000 mg/kg	12.5 mg/kg
CC(C)OC(=O)C(C(=O)Nc1cccc(Cl)c1)=C1SC=CS1 [17(h), Isopropyl 2-(1,3-dithiol-2-ylidene)-2-[N-(3-chlorophenyl)carbamoyl]acetate]	97.5%	> 5000 mg/kg	
CC(C)OC(=O)C(C(=O)Nc1cc[nH]n1)=C1SC=CS1 [20(a), Isopropyl 2-(1,3-dithiol-2-ylidene)-2-[N-(3-pyrazolyl)-carbamoyl]acetate]	102%	5000 mg/kg	8 mg/kg
CC(C)OC(=O)C(C(=O)NC1=NCCS1)=C1SC=CS1 [22(e), Isopropyl 2-(1,3-dithiol-2-ylidene)-2-[N-(2-thiazolin-2-yl)carbamoyl]acetate]	99.4%	> 5000 mg/kg	

SMILES	inhibition in vivo at 50 mg/kg [1]	LD50 at 336 h [2]	ED50 [3]
COC(=O)C(C(=O)Nc1ccccc1)=C1SC=CS1 [17(d), Methyl 2-(1,3-dithiol-2-ylidene)-2-(N-phenylcarbamoyl)acetate]	98.2%		20 mg/kg
CC(C)OC(=O)C(C(=O)Nc1ccc(F)cc1)=C1SC=CS1 [17(i), Isopropyl 2-(1,3-dithiol-2-ylidene)-2-[N-(4-fluorophenyl)carbamoyl]acetate]	89.8%	> 5000 mg/kg	
CC(C)NC(=O)C(C(=O)OC(C)C)=C1SC=CS1 [Example 11, Isopropyl 2-(1,3-dithiol-2-ylidene)-2-(N-isopropylcarbamoyl)acetate]	49.4%	2600 mg/kg	
COc1ccc(NC(=O)C(C(=O)OC(C)C)=C2SC=CS2)cc1 [17(l), Isopropyl 2-(1,3-dithiol-2-ylidene)-2-[N-(4-methoxyphenyl)carbamoyl]acetate]	99.6%	> 5000 mg/kg	
CC(C)OC(=O)C(C(=O)Nc1ccccc1C(=O)O)=C1SC=CS1 [25(a), Isopropyl 2-(1,3-dithiol-2-ylidene)-2-[N-(2-carboxyphenyl)carbamoyl]acetate]	74%	1200 mg/kg	
CCOC(=O)C(C(=O)Nc1ccc(O)cc1)=C1SC=CS1 [22(b), Ethyl 2-(1,3-dithiol-2-ylidene)-2-[N-(4-hydroxyphenyl)-carbamoyl]acetate]	90.9%		< 12.5 mg/kg
Cc1nc(NC(=O)C(C(=O)OC(C)C)=C2SC=CS2)sc1C [19(f), Isopropyl 2-(1,3-dithiol-2-ylidene)-2-[N-(4,5-dimethyl-2-thiazolyl)carbamoyl]acetate]	91.4%	> 5000 mg/kg	
CC(C)OC(=O)C(C(=O)Nc1cccc(O)c1)=C1SC=CS1 [22(c), Isopropyl 2-(1,3-dithiol-2-ylidene)-2-[N-(3-hydroxyphenyl)carbamoyl]acetate]	93%	> 5000 mg/kg	
CCOC(=O)C(C(=O)Nc1ccc(OC)cc1)=C1SC=CS1 [17(m), Ethyl 2-(1,3-dithiol-2-ylidene)-2-[N-(4-methoxyphenyl)carbamoyl]acetate]	61.5%		50 mg/kg
CC(C)OC(=O)C(C(=O)Nc1nc2ccccc2s1)=C1SC=CS1 [18(n), Isopropyl 2-(1,3-dithiol-2-ylidene)-2-[N-(2-benzothiazolyl)carbamoyl]acetate]	15.2%	> 5000 mg/kg	
CC(=O)Nc1ccc(NC(=O)C(C(=O)OC(C)C)=C2SC=CS2)cc1 [17(q), Isopropyl 2-(1,3-dithiol-2-ylidene)-2-[N-(4-acetamidophenyl)carbamoyl]acetate]	78.2%	> 5000 mg/kg	
CC(C)OC(=O)C(C(=O)Nc1ccc(F)c(Cl)c1)=C1SC=CS1 [17(k)]	93.8%		6.25 mg/kg
CC(C)OC(=O)C(C(=O)Nc1ccccc1F)=C1SC=CS1 [17(j), Isopropyl 2-(1,3-dithiol-2-ylidene)-2-[N-(2-fluorophenyl)carbamoyl]acetate]		> 5000 mg/kg	
CC(C)OC(=O)C(C(=O)Nc1ccc(C(F)(F)F)cc1)=C1SC=CS1 [17(s), Isopropyl 2-(1,3-dithiol-2-ylidene)-2-[N-(4-trifluoromethylphenyl)carbamoyl]acetate]	100%	> 4000 mg/kg	
CC(C)OC(=O)C(C(=O)Nc1ccc(Cl)cc1)=C1SC=CS1 [17(g), Isopropyl 2-(1,3-dithiol-2-ylidene)-2-[N-(4-chlorophenyl)carbamoyl]acetate]	81.5%	> 5000 mg/kg	
CC(C)OC(=O)C(C(=O)Nc1ncccn1)=C1SC=CS1 [21(d), Isopropyl 2-1,3-dithiol-2-ylidene)-2-(N-pyrimidin-2-ylcarbamoyl) acetate]	99.8%	3200 mg/kg	
